Marks after values point to notes of the source that are not given here.
Columns and labels:
[1] = test system: rat models subjected to rib fracture; assay: Effect of promoting fracture healing in rib fracture-induced rat model (callus volume, callus osteoid volume); format: in vivo, SD rats; conditions: for Changes on callus volume (mm^3): 200 mg/kg oral once a day for 2 weeks from day 2 of surgery, 8th and 9th ribs, vehicle control 37.22 ± 8.23; for Changes on callus osteoid volume (OV/callus, %): 200 mg/kg oral once a day for 2 weeks, 8th rib, vehicle control 35.88 ± 5.06
Procedure: The benzamidine compounds were assayed for therapeutic effect on bone fracture in rat models subjected to rib fracture. Benzamidine derivates are dosed from 2 days after operation for 2 weeks, and the changes on the volume and histology of callus were observed.
A total of 54 SD rats (8 weeks old upon receipt, Jung Ang Lab. Animal Co., Korea) were used. While being housed at a density of three to a plastic cage, the experimental animals were kept in a breeding room under controlled temperature (20-25° C.) and humidity (30-35%). Under light-dark cycles of 12 hours, the rats were allowed to have free access to feedstuff and tap water.
200 mg of benzamidine compounds (Methansulfonic acid or Hydrochloride) were completely dissolved in 5 ml of sterilized distilled water. The benzamidine derivatives in the solutions was orally administered at doses of 200 mg per kg of body weight once a day for 2 weeks from day 2 of the surgery.
8th and 9th rib of each animal was exposed by general operation under ketamine HCl and xylazine HCl anesthesia, and the exposed ribs were crossly dissected using surgical scissors. After rib-fracture, surgical wounds were closed with general skin suture.
8th and 9th ribs of each animal were separated at sacrifice and then the long axis and short axis of callus were calculated as mm units. The volume of callus was calculated as following Equation 2. Callus volume(mm^3)=(a×b^2)/2 Equation 2 • a: long diameter of bony callus • b: short diameter of bony callus
The 8th rib including fracture sites of each rat was separated and fixed in 10% neutral buffered formalin, and then decalcified in decalcifying solution (24.4% formic acid, and 0.5N sodium hydroxide) for 5 days (mixed decalcifying solution was exchanges once a day for 5 days). After decalcification, the rib was embedded in paraffin, sectioned (3˜4 μm) and stained with hematoxylin-eosin or Masson's trichrome for composition of callus observation.
Osteloid volume (OV/callus) in callus regions of prepared histological specimens were detected as % levels using automated image analysis (analySIS Image Processing; SIS, Germany) under microscopy.

ovariectomized ddY mouse = assay: Therapeutic effect in the ovariectomized osteoporetic mouse model (trabecular bone volume of the femur); format: in vivo, ddY mice; conditions: 50 mg/kg/day oral gavage for 4 weeks from 4 weeks after ovariectomy, salts (methansulfonic acid or HCl); for change in vivo at 50 mg/kg: Mus musculus, 672 h, read-out: Changes on TBV (% changes vs vehicle control)
How it was run: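 Female ddY mice, bilaterally ovariectomized; benzamidine salts (methanesulfonate or HCl) given orally at 50 mg/kg/day for 4 weeks, starting 4 weeks post-surgery. Femoral trabecular bone volume (%) measured histomorphometrically on H&E sections of trochlea epiphyseal region; reported as percentage change versus vehicle control.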

[2] = test system: mouse models of ovalbumin-induced asthma; assay: Therapeutic effect in mouse model of asthma induced with ovalbumin (lung weight, total leukocytes in blood and BALF); format: in vivo, C57BL/6 mice; conditions: for Changes on the lung weight, Relative (%) / Total leukocytes in peripheral blood (×10^3/1 mm^3) / Total leukocytes in BALF (×10^5/1 ml): 200 mg/kg oral once a day; for Changes on the lung weight, Relative (%): % of body weight, vehicle control 0.780 ± 0.103, sham 0.694 ± 0.049; for Total leukocytes in peripheral blood (×10^3/1 mm^3): vehicle control 14.49 ± 0.88, sham 10.27 ± 0.93; for Total leukocytes in BALF (×10^5/1 ml): vehicle control 75.68 ± 4.67, sham 51.75 ± 2.15
Procedure: The benzamidine compounds were assated for therapeutic effect on allergic inflammation in mouse models of ovalbumin-induced asthma. Starting on the day of immunization the benzamidine compounds were dosed for 17 consecutive days. The experimental animals were re-exposed to ovalbumin 14 days after the sensitization and then sacrificed 3 days after the re-exposure. Changes in lung weight, cellular components of peripheral blood and bronchoalveolar lavage fluid, and lung histopathology were observed.
A total of 110 female C57BL/6 mice (7-week-old, SLC, Japan) were adapted to a laboratory environment for 6 days before being used in earnest experiments. While being housed at a densirt of five in a plastic cage, the experimental animals were breed in a breeding room with controlled temperature (20-25° C.) and humidity (30-35%). Under light-dark cycles of 12 hours, mice were allowed to have free access to feedstuff and tap water. While asthma was induced in 100 mice by ovalbumin, 10 mice were used as a non-treated group.
200 mg of benzamidine compounds (Methansulfonic acid or Hydrochloride) were completely dissolved in 5 ml of sterilized distilled water. The benzamidine compound in the solutions was orally administered at doses of 200 mg per kg of body weight once a day from the day of the sensitization with ovalbumin. The control group was administered with equal volumes of sterilized distilled water in the same manner.
A solution of 200 μg of ovalbumin (Grade VI; Sigma, st. Louis, Mo., USA) and 180 mg of aluminium hydroxide (Al(OH)3, dried powder gel; Aldrich, Milwaukee, USA) in 4 ml of physiological saline was allowed to stand at 4° C. overnight and was administered to the experimental animals (200 μl, abdominal injection) for sensitization. As for the non-treated group, a solution of only aluminium hydroxide in saline was injected. 15 days after sensitization, a 1.5% ovalbumin solution was sprayed in air using a nebulizer, followed by exposing the experimental animals to the spray for 10 min to induce asthma therein. The non-treated group was exposed only to saline in the same manner. All the experimental animals were sacrificed 3 days after the exposure.
On the final day of experiment, the lungs were separated form adjacent organs. The removed lungs were weight among individual animals, the relative weight of the lungs was calculated as a percentage of body weight using the following Equation 3. Relative weight of Lung(%)=(Absolute lung weight/Body weight)×100 Equation 3
On the final day of experiment, all the experimental animals were etherized and underwent laparotomy to expose the abdominal vena cava, from which 1 ml of blood was the taken. Using a hemocytometer, a blood sample was measured for total leukocyte counts in a ×10^3/1 mm^3 units.
On the final day of experiment, secretions present in bronchi and alveola were examined for cyrological constitution. After veing etherized, the experimental animals were operated to open the cervical region and the thorax. The jugular vein was allowed to bleed, followed by endotracheal intubation. 3 ml of phosphate buffered saline was injected twice through the tube and the thorax was massaged for 30 sec to obtain cell suspension from the lungs. Using a hemocytometer, a […] was measured for total leukocyte counts in a ×10^5/1 ml units.

[3] = 200 mg/kg oral once a day from sensitization, vehicle control 0.134 ± 0.012, sham 0.110 ± 0.009

Structure (SMILES)	Changes on callus volume (mm^3) [1]	Changes on callus osteoid volume (OV/callus, %) [1]	change in vivo at 50 mg/kg (ovariectomized ddY mouse)	Changes on the lung weight, Absolute [2, 3]	Changes on the lung weight, Relative (%) [2]	Total leukocytes in peripheral blood (×10^3/1 mm^3) [2]	Total leukocytes in BALF (×10^5/1 ml) [2]	Changes on TBV (% changes vs vehicle control) (ovariectomized ddY mouse)	Changes on the lung weight, Absolute (g) [2, 3]
Cc1sc(-c2cccnc2)nc1-c1ccc(OCCCCCOc2ccc(C(=N)NO)cc2)cc1 [Example 13, N-hydroxy-4-(5-[4-(5-methyl-2-pyridin-3-yl-1,3-thiazol-4-yl)phenoxy]pentoxy)-benzamidine]	23.15 ± 7.85* mm^3	43.19 ± 4.47 %	82%	0.108 ± 0.009 g	0.695 ± 0.075%	14.06 ± 1.07 ×10^3/1 mm^3	72.75 ± 4.88 ×10^5/1 ml		
CC(C)c1nc(-c2ccc(OCCCCCOc3ccc(C(=N)NO)cc3)cc2)c(CC2CCCC2)s1 [Example 47, N-hydroxy-4-(5-[4-(5-cyclopentylnnethyl-2-isopropyl-1,3-thiazol-4-yl)phenoxy]pentoxy)-benzamidine]	27.56 ± 6.94** mm^3	45.69 ± 7.07%			0.706 ± 0.059%	12.55 ± 1.35 # ×10^3/1 mm^3	62.40 ± 7.56 # ×10^5/1 ml	139.8%	0.122 ± 0.010 ## g
CCCN(CCC)c1nc(-c2ccc(OCCCCCOc3ccc(C(=N)NO)cc3)cc2)c(CC)s1 [Example 138, N-hydroxy-4-(5-[4-(2-dipropylamino-5-ethyl-1,3-thiazol-4-yl)phenoxy]pentoxy)-benzamidine]	27.34 ± 5.46* mm^3	53.83 ± 7.84 %	164%	0.113 ± 0.011 g	0.691 ± 0.065 %	13.60 ± 0.83 # ×10^3/1 mm^3	68.83 ± 5.29 ## ×10^5/1 ml		
